Experimental data reported in BindingDB's records for doi:10.1021/jm970682+ (University of Louvain, 1998).

Test: The compound was tested for the affinity on sigma 1 receptor using [3H]- pentazocine as radioligand

Row | Structure (SMILES) | Ki [nM]
1 | CCC(=O)c1ccc2c(c1)sc(=O)n2CCN1CCCC1 [6-Propionyl-3-(2-pyrrolidin-1-yl-ethyl)-3H-benzothiazol-2-one] | 571
2 | CCCCC(=O)c1ccc2c(c1)sc(=O)n2CCN(C)C [3-(2-Dimethylamino-ethyl)-6-pentanoyl-3H-benzothiazol-2-one] | 628
3 | CCC(=O)c1ccc2c(c1)sc(=O)n2CCN1CCCCC1 [3-(2-Piperidin-1-yl-ethyl)-6-propionyl-3H-benzothiazol-2-one] | 47

Next, values leading:

Row | Ki [nM] | Structure (SMILES)
4 | 0.6 | CCCc1ccc2c(c1)sc(=O)n2CCN1CCCCC1 [3-(2-Piperidin-1-yl-ethyl)-6-propyl-3H-benzothiazol-2-one]
5 | 72 | CCC(=O)c1ccc2c(c1)oc(=O)n2CCN1CCCCC1 [3-(2-Piperidin-1-yl-ethyl)-6-propionyl-3H-benzooxazol-2-one]
6 | 72 | O=c1oc2cc(Cc3ccccc3)ccc2n1CCN1CCOCC1 [6-Benzyl-3-(2-morpholin-4-yl-ethyl)-3H-benzooxazol-2-one]
7 | 54 | O=C(c1ccccc1)c1ccc2c(c1)sc(=O)n2CCN1CCCC1 [6-Benzoyl-3-(2-pyrrolidin-1-yl-ethyl)-3H-benzothiazol-2-one]
8 | 365 | CN(C)CCn1c(=O)oc2cc(C(=O)c3ccccc3)ccc21 [6-Benzoyl-3-(2-dimethylamino-ethyl)-3H-benzooxazol-2-one]

Test: as above
Remark: another data set of the same source

Row | Structure (SMILES) | Ki [nM]
9 | CCC(=O)c1ccc2c(c1)sc(=O)n2C(=O)CC [3,6-Dipropionyl-3H-benzothiazol-2-one] | 63
